{"source": "patent US20090176288A1", "about": "“Methods and Compositions for Butanol Production” (priority 2006, published 2009)", "key": {"[1]": {"tested_on": "BUT-R/1 mutant (ATCC No. PTA-8515)", "details": "3 days, 37° C.", "method": "(§1) But-R/1 mutant (ATCC No. PTA-8515), a derivative of C. acetobutylicum ATCC 824, was produced via long-term incubation of wild-type C. acetobutylicum 824 in reinforced Clostridium medium (“RCM”) with glucose (0.5%) and butanol (2.5% v/v) under anaerobic conditions at 37° C. When turbidity developed, the bacterial suspension was spread onto RCM agar with 2.5% butanol. […] Mutants were purified twice using RCM agar containing 2.5% of butanol. […] Cells were grown for 3 days in RCM medium in an anaerobic jar at 37° C. Optical density of cell suspensions was measured at 600 nm spectrophotometrically."}, "[2]": {"tested_on": "Clostridium acetobutylicum ATCC 824 (wild type)", "details": "3 days, 37° C.", "method": "as §1"}, "[3]": {"tested_on": "omrA/pCR-II TOPO/TOP10 E. coli cells", "method": "Survival rates of E. coli strains with and without the omrA-plasmid were determined. […] For this experiment, the omrA gene was inserted into the expression plasmid pCR-Blunt II-TOPO (invitrogen, Carlsbad, Calif.) hosted by the TOP10 E. coli strain [F-mcrA Δ (mcr-hsdRMS-mcrBC) Φ)80lacZ ΔM15 ΔlacX74 recA1 deoR araD139 Δ (ara-leu)7697 galU galK rpsL (Str^R) endA1 nupG]. The plasmid with no insertion was used as a control. Flasks (50 ml) containing 10 ml of LB broth with 50 μg/ml kanamycin were inoculated with 100 μl of bacterial cells grown overnight at 37° C. in the same medium and incubated at 37° C. with aeration (200 rpm) for 4 hours. Bacterial growth was stopped by adding chloramphenicol (100 μg/ml) and optical density of cell cultures measured spectrophotometrically at 600 nm."}}, "note": "Like-named read-outs stand apart in the source and are kept apart here."}
{"substance": "butanol", "values": [{"measurement": "Growth inhibition, Mutant", "setting": "[1]; butanol 0.3 % (v/v)", "result": 0}, {"measurement": "Growth inhibition, Mutant", "setting": "[1]; butanol 0.6 % (v/v)", "result": 0}, {"measurement": "Growth inhibition, Mutant", "setting": "[1]; butanol 0.9 % (v/v)", "result": 0}, {"measurement": "Growth inhibition, Mutant", "setting": "[1]; butanol 1.2 % (v/v)", "result": 23.2}, {"measurement": "Growth inhibition, Mutant", "setting": "[1]; butanol 1.5 % (v/v)", "result": 73.8}, {"measurement": "Growth inhibition, Mutant", "setting": "[1]; butanol 1.8 % (v/v)", "result": 84.2}, {"measurement": "Growth inhibition, WT", "setting": "[2]; butanol 0.3 % (v/v)", "result": 8.4}, {"measurement": "Growth inhibition, WT", "setting": "[2]; butanol 0.6 % (v/v)", "result": 40.4}, {"measurement": "Growth inhibition, WT", "setting": "[2]; butanol 0.9 % (v/v)", "result": 56.1}, {"measurement": "Growth inhibition, WT", "setting": "[2]; butanol 1.2 % (v/v)", "result": 89.7}, {"measurement": "Growth inhibition, WT", "setting": "[2]; butanol 1.5 % (v/v)", "result": 94.2}, {"measurement": "Growth inhibition, WT", "setting": "[2]; butanol 1.8 % (v/v)", "result": 99.5}, {"measurement": "resistance to butanol compared with E. coli TOPO10 host cells", "setting": "[3]; FIG. 2", "result": "slightly more resistant"}, {"measurement": "bacterial survival in presence of butanol compared with host strain with no omrA gene", "setting": "[3]; FIG. 3, varying levels of butanol", "result": "increased bacterial survival significantly"}]}
